In this assay the test system is hPSC-NSCs. The experiment in a line: RT-PCR expression of dopamine neuron genes in hPSC-NSCs treated with small molecule hits. Format: cell-based, human. Particulars: for fold induction at 2.5 µM: Homo sapiens, Neuron, 336 h. As for the experimental part:
The method specifically involved treating both hESC-H9-NSCs (Invitrogen) and hPSC-NSCs with Purmorphamine (2 μM) and FGF8 (100 ng/mL) in NB medium [NeuroBasal medium, 1× GlutaMAX, 1× N2/B27 Supplement (Invitrogen)] for 7 days. After 7 days of Purmorphamine and FGF8 treatment, the NSCs were dissociated with Accutase (Sigma) and plated 20,000 cells/mL into Matrigel coated 96 well plates and treated with small molecule library (Torcris 1120 Biologically Active Compounds) at 2.5 μM final concentration for two weeks (FIG. 6A). Two weeks after treatment with small molecules, all wells were visually observed and scored based on neurite density and dopamine release. For measuring neurite density, cells were fixed with 4% paraformaldehyde and phase contrast images were acquired using Cellavista Cell Imaging System (Roche Applied Science) from randomly selected fields. Neurite density was measured using the Cellavista density software image processing program. Each experimental condition was done in duplicate wells, and at least three independent experiments were conducted to acquire the final results.
Conditioned medium from the top neurite inducers (Table 1) (wells containing the highest density of neurites compare to control 0.1% DMSO treated) were collected and analyzed using a dopamine ELISA assay (Cosmo Bio). Conditioned medium was collected from samples containing 50,000 cells per well and centrifuged at 3000 RPM to remove cell debris. Supernatant was then collected and analyzed for quantitative determination of dopamine using a commercial dopamine ELISA assay kit (CusaCosmo Bio). Data analysis was performed using the microtiter plate reader (BIO-TEK Synergy 2). The results presented are from three independent experiments (n=3) and represented as mean±standard error of mean (s.e.m.) and statistical analysis was performed using the two-tailed Student's t-test with a confidence level of 95% (α=0.05) with statistical significance of P<0.05. Additionally, total RNA from each well were collected and analyze by RT-PCR for expression of TuJ1, MAP2, TH, GRK2, EN1, DAT, AADC, PAX2, NURR1, PITX3 and LMX1B from hPSC-NSCs (Table 2). […] Analysis of the ELISA data indicated the top small molecule neurite inducers produced higher levels of dopamine than control non-treated cells (1.5 ng/mL). […] The percentages of TH positive cells produced by chemical treatment with Kenpaullone (33%), Guggulsterone (35%), Kynurenic Acid (19%), Immedthridine Dihydrobromide (21%), and Dimaprit Dihydrochloride (18%) were higher than 15% of TH positive cells obtained from hPSC-NSCs differentiated for ≥1 month using a standard dopaminergic differentiation medium (BDNF 20 ng/mL, GDNF 20 ng/mL, cAMP 200 μM, Abscorbic Acid 200 μM, TGFβ3 2 ng/mL and DAPT).
Total RNA from at least triplicate samples with around 1 million cells each was isolated using either QIAsymphony automatic purification system or RNeasy Plus Mini kit, according to manufacturer's instructions (Qiagen). Total RNA was used for reverse transcription with the iScript cDNA synthesis kit (Biorad) and Px2 Thermal Cycler (Thermo Scientific). To analyze gene expression, PCR reactions were performed in duplicate using 1/25-th of the cDNA per reaction and the QuantiTect Primer Assay and Quantitest SYBR Green master mix (Qiagen). qPCR was performed using the Rotor-Gene Q (Qiagen) 5 min at 95° C., 5 s at 92° C., and 20 s at 60° C. for 37 cycles followed by melt to check the specificity of the amplicons from 50 to 99° C. raising by 1° C. each step. Relative quantification was performed against a standard curve and quantified values were normalized against the input determined by PPIG. The primers used for the analysis are listed in Supplementary Table S1. […]

The mark [1] stands for this setting: hPSC-NSCs primed 7 days with Purmorphamine and FGF8, small molecule 2.5 μM for two weeks.
Setting [2] is: hPSC-NSCs primed 7 days with Purmorphamine and FGF8, small molecule 2.5 μM for two weeks, read-out: DDC (AADC) expression by RT-PCR.
Setting [3] is: hPSC-NSCs primed 7 days with Purmorphamine and FGF8, small molecule 2.5 μM for two weeks, read-out: EN1 expression by RT-PCR.
The mark [4] stands for this setting: hPSC-NSCs primed 7 days with Purmorphamine and FGF8, small molecule 2.5 μM for two weeks, read-out: KCNJ6 expression by RT-PCR.
[5] abbreviates: hPSC-NSCs primed 7 days with Purmorphamine and FGF8, small molecule 2.5 μM for two weeks, read-out: LMX1B expression by RT-PCR.
The mark [6] stands for this setting: hPSC-NSCs primed 7 days with Purmorphamine and FGF8, small molecule 2.5 μM for two weeks, read-out: MAP2 expression by RT-PCR.
Where [7] appears, read: hPSC-NSCs primed 7 days with Purmorphamine and FGF8, small molecule 2.5 μM for two weeks, read-out: NR4A2 (NURR1) expression by RT-PCR.
The mark [8] stands for this setting: hPSC-NSCs primed 7 days with Purmorphamine and FGF8, small molecule 2.5 μM for two weeks, read-out: PITX3 expression by RT-PCR.
[9] abbreviates: hPSC-NSCs primed 7 days with Purmorphamine and FGF8, small molecule 2.5 μM for two weeks, read-out: Pax2 expression by RT-PCR.
Where [10] appears, read: hPSC-NSCs primed 7 days with Purmorphamine and FGF8, small molecule 2.5 μM for two weeks, read-out: TH1 expression by RT-PCR.
[11] abbreviates: hPSC-NSCs primed 7 days with Purmorphamine and FGF8, small molecule 2.5 μM for two weeks, read-out: Tubb3 expression by RT-PCR.

The text below walks through data of patent US9926529B2, “Derivation of neural stem cells and dopaminergic neurons from human pluripotent stem cells” (International Stem Cell Corporation, priority 2012, dated 2018).

Molecules are shown by their SMILES. Counter-ions that a name gives are not always drawn. Like-named read-outs stand apart in the source and are kept apart here.

Consider `Cc1cc(C(=O)O)sc1C(N)C(=O)O` (stereo not shown) [3-MATIDA], for which, under setting [1], the “DDC (AADC) expression by RT-PCR” value came out at 80.55, the “EN1 expression by RT-PCR” value turned out to be 7.3, the “KCNJ6 (GRK2) expression by RT-PCR” value stood at 1.21 and the “LMX1B expression by RT-PCR” value amounted to 2.99. In addition, under setting [1], the “MAP2 expression by RT-PCR” value turned out to be 10.7, the “NR4A2 (NURR1) expression by RT-PCR” value worked out at 3.06, the “PITX3 expression by RT-PCR” value came out at 0.46 and the “Pax2 expression by RT-PCR” value is given as 0.65. In addition, under setting [1], the “SLC6A3 (DAT) expression by RT-PCR” value is listed as 1.42, the “TH1 expression by RT-PCR” value is 5.1 and the “Tubb3 expression by RT-PCR” value is listed as 3.74.
Take `Br.CCCN(CCC)C1CCc2cccc(O)c2C1` (stereo not shown) [8-Hydroxy-DPAT hydrobromide]: under setting [1], the “DDC (AADC) expression by RT-PCR” value amounted to 124.29, the “EN1 expression by RT-PCR” value was 11.69, the “KCNJ6 (GRK2) expression by RT-PCR” value turned out to be 0.9 and the “LMX1B expression by RT-PCR” value came out at 5.42. Also, under setting [1], the “MAP2 expression by RT-PCR” value is given as 14.43, the “NR4A2 (NURR1) expression by RT-PCR” value worked out at 7.66, the “Pax2 expression by RT-PCR” value amounted to 1.25 and the “SLC6A3 (DAT) expression by RT-PCR” value came to 19.9. Besides, under setting [1], the “TH1 expression by RT-PCR” value is given as 7.32 and the “Tubb3 expression by RT-PCR” value stood at 7.8.
Regarding `N[C@@H]1CCN(O)C1=O` [(R)-(+)-HA-966], under setting [1], the “DDC (AADC) expression by RT-PCR” value was 104.03, the “EN1 expression by RT-PCR” value was determined as 7.26, the “KCNJ6 (GRK2) expression by RT-PCR” value was 1.02 and the “LMX1B expression by RT-PCR” value came to 3.94. For the same compound, under setting [1], the “MAP2 expression by RT-PCR” value is 10.66, the “NR4A2 (NURR1) expression by RT-PCR” value came out at 3.91, the “PITX3 expression by RT-PCR” value was 0.23 and the “Pax2 expression by RT-PCR” value was found to be 4.7. For the same compound, under setting [1], the “SLC6A3 (DAT) expression by RT-PCR” value was 26.39, the “TH1 expression by RT-PCR” value is listed as 6.75 and the “Tubb3 expression by RT-PCR” value is listed as 5.61.
Regarding `Cc1nnc2ccc(-c3cccc(C(F)(F)F)c3)nn12` [CL 218872], under setting [1], the “DDC (AADC) expression by RT-PCR” value was determined as 8.73, the “EN1 expression by RT-PCR” value is listed as 5.69, the “KCNJ6 (GRK2) expression by RT-PCR” value is 0.43 and the “LMX1B expression by RT-PCR” value turned out to be 2.52. Under setting [1], the “MAP2 expression by RT-PCR” value was found to be 8.94, the “NR4A2 (NURR1) expression by RT-PCR” value came to 1.79, the “PITX3 expression by RT-PCR” value was found to be 0.08 and the “Pax2 expression by RT-PCR” value is reported as 0.09. Under setting [1], the “SLC6A3 (DAT) expression by RT-PCR” value worked out at 0.98, the “TH1 expression by RT-PCR” value amounted to 13.89 and the “Tubb3 expression by RT-PCR” value is reported as 4.3.
In the case of `Nc1nc(Nc2ccccc2)nc2c1ncn2[C@@H]1O[C@H](CO)[C@@H](O)[C@H]1O` [CV 1808], under setting [1], the “DDC (AADC) expression by RT-PCR” value came out at 16.69, the “EN1 expression by RT-PCR” value worked out at 5.56, the “KCNJ6 (GRK2) expression by RT-PCR” value was determined as 0.36 and the “MAP2 expression by RT-PCR” value was found to be 8.66. Besides, under setting [1], the “NR4A2 (NURR1) expression by RT-PCR” value came out at 1.56, the “PITX3 expression by RT-PCR” value is 0.7, the “SLC6A3 (DAT) expression by RT-PCR” value is recorded as 0.94 and the “TH1 expression by RT-PCR” value is given as 12.51. For the same compound, under setting [1], the “Tubb3 expression by RT-PCR” value is given as 3.86.
For the compound `CCCC[C@@H](C=O)NC(=O)[C@H](CC(C)C)NC(=O)OCc1ccccc1` [Calpeptin], the fold induction at 2.5 µM (read-out: SLC6A3 (DAT) expression by RT-PCR) is 6.57; the fold induction at 2.5 µM under setting [2] amounted to 295; the fold induction at 2.5 µM under setting [3] came to 6.93; the fold induction at 2.5 µM under setting [4] is 4.43; the fold induction at 2.5 µM under setting [5] turned out to be 2.9; the fold induction at 2.5 µM under setting [6] stood at 12.9. For the same compound, the fold induction at 2.5 µM under setting [7] is 2.45; the fold induction at 2.5 µM under setting [8] worked out at 0.37; the fold induction at 2.5 µM under setting [9] was determined as 3.54; the fold induction at 2.5 µM under setting [10] was determined as 15.2; the fold induction at 2.5 µM under setting [11] came to 6.1.
As for `CC(C)(C)c1cc(C(=O)/C=C/c2ccc(C(=O)O)cc2)cc(C(C)(C)C)c1` [Ch 55], under setting [1], the “DDC (AADC) expression by RT-PCR” value is given as 22.86, the “EN1 expression by RT-PCR” value worked out at 11.61, the “KCNJ6 (GRK2) expression by RT-PCR” value is listed as 0.25 and the “LMX1B expression by RT-PCR” value is 1.54. Besides, under setting [1], the “MAP2 expression by RT-PCR” value was found to be 5.25, the “NR4A2 (NURR1) expression by RT-PCR” value came to 77.93, the “PITX3 expression by RT-PCR” value was determined as 0.13 and the “Pax2 expression by RT-PCR” value was found to be 0.06. In addition, under setting [1], the “SLC6A3 (DAT) expression by RT-PCR” value is listed as 0.11, the “TH1 expression by RT-PCR” value came to 1.19 and the “Tubb3 expression by RT-PCR” value turned out to be 3.48.
In the case of `O=S(=O)(c1cccc2cnccc12)N1CCCNCC1` [Fasudil hydrochloride], the fold induction at 2.5 µM was 32.4 under setting [2]; 8.69 under setting [3]; 1.57 under setting [4]; 3.5 under setting [5]; 11.6 under setting [6]; 4.53 under setting [7]. Further, the fold induction at 2.5 µM by setting is: under setting [8], 0.27; under setting [9], 0.27; (hPSC-NSCs primed 7 days with Purmorphamine and FGF8, small molecule 2.5 μM for two weeks, read-out: SLC6A3 (DAT) expression by RT-PCR) 2.79; under setting [10], 5.53; under setting [11], 5.67.
As to `O=C(O)Cc1cccnc1C(=O)O` [Homoquinolinic acid], under setting [1], the “DDC (AADC) expression by RT-PCR” value was 20.19, the “EN1 expression by RT-PCR” value is recorded as 4.83, the “KCNJ6 (GRK2) expression by RT-PCR” value came out at 1.76 and the “LMX1B expression by RT-PCR” value turned out to be 2.32. Under setting [1], the “MAP2 expression by RT-PCR” value was 10.03, the “NR4A2 (NURR1) expression by RT-PCR” value amounted to 1.99, the “PITX3 expression by RT-PCR” value turned out to be 0.4 and the “Pax2 expression by RT-PCR” value worked out at 0.05. Besides, under setting [1], the “SLC6A3 (DAT) expression by RT-PCR” value is reported as 19.18, the “TH1 expression by RT-PCR” value is 10.77 and the “Tubb3 expression by RT-PCR” value stood at 2.95.
On to `Cl.O=C(O)COc1ccc(OCCNC[C@H](O)COc2ccccc2)cc1` [ICI 215,001 hydrochloride], for which, under setting [1], the “DDC (AADC) expression by RT-PCR” value stood at 29.34, the “EN1 expression by RT-PCR” value came to 8.52, the “KCNJ6 (GRK2) expression by RT-PCR” value is given as 1.48 and the “LMX1B expression by RT-PCR” value is 4.79. Under setting [1], the “MAP2 expression by RT-PCR” value worked out at 11.2, the “NR4A2 (NURR1) expression by RT-PCR” value turned out to be 2.88, the “Pax2 expression by RT-PCR” value was 39.43 and the “SLC6A3 (DAT) expression by RT-PCR” value is 1.77. For the same compound, under setting [1], the “TH1 expression by RT-PCR” value amounted to 6.04 and the “Tubb3 expression by RT-PCR” value was 5.54.
